Test results reported in US9844542B2, “Substituted imidazopyridine and triazolopyridine compounds as negative allosteric modulators of mGluR5” (Vanderbilt University, priority 2013, dated 2017).
pIC50: −log10 of the molar value.

Legend:
[1] = system: male Harlan CD-1 mice; details: literature; cited from earlier work
[2] = system: N-methyl-D-aspartate (NMDA) receptor; details: at higher concentrations; cited from earlier work
[3] = target: mGluR4 (Homo sapiens, UniProt Q14833); details: cited from earlier work
[4] = intravenous administration, rhesus monkeys; cited from earlier work
[5] = target: T1, cytochrome P450 1A2 (Homo sapiens, UniProt P05177); details: cited from earlier work
T1 sequence (P05177 1-516): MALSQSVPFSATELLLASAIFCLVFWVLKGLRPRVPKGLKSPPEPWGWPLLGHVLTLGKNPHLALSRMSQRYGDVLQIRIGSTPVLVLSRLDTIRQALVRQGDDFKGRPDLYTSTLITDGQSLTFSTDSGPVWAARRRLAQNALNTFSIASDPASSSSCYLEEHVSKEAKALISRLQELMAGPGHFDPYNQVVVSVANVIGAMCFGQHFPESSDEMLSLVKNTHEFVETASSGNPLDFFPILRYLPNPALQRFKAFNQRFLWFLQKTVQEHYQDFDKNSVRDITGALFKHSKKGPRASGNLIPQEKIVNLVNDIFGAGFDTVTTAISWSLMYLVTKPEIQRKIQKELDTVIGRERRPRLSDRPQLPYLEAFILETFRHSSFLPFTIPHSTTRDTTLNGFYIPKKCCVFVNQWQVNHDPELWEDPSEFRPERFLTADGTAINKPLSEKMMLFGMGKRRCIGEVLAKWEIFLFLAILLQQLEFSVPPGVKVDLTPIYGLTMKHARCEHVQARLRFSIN

[6] = target: T2, rat mGluR5 (Rattus norvegicus, UniProt P31424); assay: mGluR5 calcium mobilization assay (FDSS, Fluo-4) in HEK 293A cells stably expressing rat mGluR5; type: cell-based; details: HEK cells transfected with rat mGluR5; antagonism of glutamate EC80 response; ± = standard error of at least three experiments
T2 construct: expressed in transfected cells
Method: Human embryonic kidney (HEK) cells transfected with rat or human mGluR5 were plated in clear bottom assay plates for assay in a Functional Drug Screening System (FDSS). The cells were loaded with a Ca^2+-sensitive fluorescent dye (e.g., Fluo-4), and the plates were washed and placed in the FDSS instrument. Test compound was applied to cells 3 seconds after baseline readings were taken. Cells were incubated with the test compounds for 140 seconds and then stimulated with an EC20 concentration of an mGluR5 agonist (e.g., glutamate, 3,5-dihydroxyphenylglycine, or quisqualate); 60-80 seconds later an EC80 concentration of agonist was added and readings taken for an additional 40 seconds. Data were collected at 1 Hz. […] Concentration response curves were generated using a four parameter logistical equation.
The above described assay was operated in two modes. In the first mode (utilizing a triple add protocol), a range of concentrations of the present compounds were added to cells, followed by two single fixed concentrations of agonist (EC20 followed by EC80). If a compound acted as a potentiator, an EC50 value for potentiation of the EC20 response and a maximum extent of potentiation by the compound at this concentration of agonist was determined by non-linear curve fitting. If a compound acted as an antagonist, an IC50 value for antagonism of the EC80 response and a maximum extent of antagonism by the compound at this concentration of agonist was determined by non-linear curve fitting. In the second mode (utilizing a double add protocol), several fixed concentrations of the present compounds were added to various wells on a plate, followed by a range of concentrations of agonist for each concentration of present compound; the EC50 values for the agonist at each concentration of compound were determined by nonlinear curve fitting. A decrease in the EC50 value of the agonist with increasing concentrations of the present compounds (a leftward shift of the agonist concentration-response curve) is an indication of the degree of mGluR5 positive allosteric modulation at a given concentration of the present compound. An increase in the EC50 value of the agonist with increasing concentrations of the present compounds (a rightward shift of the agonist concentration response curve) is an indication of the degree of mGluR5 antagonism at a given concentration of the present compound. The second mode also indicates whether the present compounds also affect the maximum response to mGluR5 to agonists.
The mGluR5 activity was determined using the calcium mobilization assays in human embryonic kidney cells as described herein below, wherein the human embryonic kidney cells were transfected with rat mGluR5. The mGluR5 activity data for some compounds are shown as the average of at least three experiments with the standard error in these cases. If no error is indicated for the mGluR5 activity, the values given represent the results from a single experiment or the average of two experiments. The compounds in Table 1 were synthesized with methods identical or analogous to those shown herein. The requisite starting materials were commercially available, described in the literature, or readily synthesized by one skilled in the art of organic synthesis.
GluMax is the amplitude of response in the presence of 30 μM test compound as a percentage of maximal response (100 μM glutamate). Partial antagonists display concentration-response curves (CRCs) that plateau above 10%.
The preparation of rat mGluR5 stable cell-lines is as previously described (e.g. see Romano et al. J Biol. Chem. 1996 Nov. 8; 271(45):28612-6).

T2 sequence (P31424 21-1171 isoform P31424-2 limits assumed): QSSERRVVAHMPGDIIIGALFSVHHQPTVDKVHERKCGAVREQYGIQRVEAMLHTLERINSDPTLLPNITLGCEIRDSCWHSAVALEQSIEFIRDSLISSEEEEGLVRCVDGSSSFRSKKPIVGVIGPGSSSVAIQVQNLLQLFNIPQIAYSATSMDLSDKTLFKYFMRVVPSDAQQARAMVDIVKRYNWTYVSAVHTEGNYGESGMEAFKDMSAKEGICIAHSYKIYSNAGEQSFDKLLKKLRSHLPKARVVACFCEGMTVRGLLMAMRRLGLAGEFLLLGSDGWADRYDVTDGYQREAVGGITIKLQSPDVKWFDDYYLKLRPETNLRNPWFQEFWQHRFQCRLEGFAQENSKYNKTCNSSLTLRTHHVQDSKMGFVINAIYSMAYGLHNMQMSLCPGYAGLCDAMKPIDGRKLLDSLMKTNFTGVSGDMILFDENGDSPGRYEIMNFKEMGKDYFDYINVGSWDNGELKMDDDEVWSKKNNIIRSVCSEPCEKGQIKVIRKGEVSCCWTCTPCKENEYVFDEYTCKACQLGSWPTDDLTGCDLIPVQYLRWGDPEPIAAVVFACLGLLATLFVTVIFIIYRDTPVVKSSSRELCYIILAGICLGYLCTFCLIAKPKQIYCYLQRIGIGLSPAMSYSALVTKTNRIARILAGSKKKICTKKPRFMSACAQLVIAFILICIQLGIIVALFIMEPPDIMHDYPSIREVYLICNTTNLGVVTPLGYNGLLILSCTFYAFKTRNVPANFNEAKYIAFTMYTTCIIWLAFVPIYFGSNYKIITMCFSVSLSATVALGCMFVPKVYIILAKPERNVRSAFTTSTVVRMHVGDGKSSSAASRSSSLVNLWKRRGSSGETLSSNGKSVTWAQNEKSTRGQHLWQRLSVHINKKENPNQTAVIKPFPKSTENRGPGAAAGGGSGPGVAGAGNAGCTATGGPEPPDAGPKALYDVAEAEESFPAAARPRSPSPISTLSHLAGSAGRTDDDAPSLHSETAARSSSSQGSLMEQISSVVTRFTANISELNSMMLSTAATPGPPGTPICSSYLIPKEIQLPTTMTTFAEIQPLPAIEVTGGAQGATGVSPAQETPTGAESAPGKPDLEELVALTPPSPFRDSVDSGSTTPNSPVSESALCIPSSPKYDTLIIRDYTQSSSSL
Sequence of mGluR4 (Q14833 33-912): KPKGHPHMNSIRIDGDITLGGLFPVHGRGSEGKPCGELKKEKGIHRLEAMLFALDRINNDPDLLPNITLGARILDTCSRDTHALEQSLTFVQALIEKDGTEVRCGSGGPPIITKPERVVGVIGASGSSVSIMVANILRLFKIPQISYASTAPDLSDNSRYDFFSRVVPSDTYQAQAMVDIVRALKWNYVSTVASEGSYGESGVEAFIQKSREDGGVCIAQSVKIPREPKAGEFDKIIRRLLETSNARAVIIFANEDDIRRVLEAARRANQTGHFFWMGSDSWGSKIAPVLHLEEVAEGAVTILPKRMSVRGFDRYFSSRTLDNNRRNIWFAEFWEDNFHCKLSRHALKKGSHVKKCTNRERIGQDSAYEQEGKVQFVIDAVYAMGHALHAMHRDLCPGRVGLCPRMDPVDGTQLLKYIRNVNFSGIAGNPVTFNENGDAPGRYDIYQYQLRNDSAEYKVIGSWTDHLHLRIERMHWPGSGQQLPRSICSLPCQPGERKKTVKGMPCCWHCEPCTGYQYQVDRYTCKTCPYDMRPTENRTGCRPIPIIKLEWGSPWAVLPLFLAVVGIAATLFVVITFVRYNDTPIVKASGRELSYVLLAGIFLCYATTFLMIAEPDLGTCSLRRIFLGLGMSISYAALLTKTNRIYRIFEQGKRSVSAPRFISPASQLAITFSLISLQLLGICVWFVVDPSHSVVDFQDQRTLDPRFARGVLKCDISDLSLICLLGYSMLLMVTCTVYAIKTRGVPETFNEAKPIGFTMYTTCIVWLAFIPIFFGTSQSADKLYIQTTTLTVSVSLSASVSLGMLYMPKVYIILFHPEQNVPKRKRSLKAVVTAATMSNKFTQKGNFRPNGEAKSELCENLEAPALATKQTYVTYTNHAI

Row | pIC50 [6] | SMILES | also measured
1 | – | CN1CC(=O)N=C1NC(=O)Nc1cccc(Cl)c1 [fenobam, 1-(3-chlorophenyl)-3-(1-methyl-4-oxo-4,5-dihydro-1H-imidazol-2-yl)urea] | effect in marble burying model [1]: effective
2 | – | Cc1cccc(C#Cc2ccccc2)n1 [MPEP, 2-methyl-6-(phenylethynyl) pyridine] | effect in marble burying model [1]: effective; NMDA receptor activity [2]: directly inhibit; activity at mGluR4 [3]: positive allosteric modulator
3 | – | Cc1nc(C#Cc2cccnc2)cs1 [MTEP, 3-[(2-methyl-1,3-thiazol-4-yl)ethynyl]pyridine] | clearance [4]: efficiently cleared; cytochrome P450 1A2 inhibition [5]: potent inhibitor
4 | 6.42 | Cc1nc(NC(=O)c2cc(Oc3cncc(Cl)c3)cn3ncnc23)ccc1F | –
5 | 7.60 | O=C(Nc1ccccn1)c1cc(Oc2cncc(F)c2)cn2ncnc12 | –
6 | 6.32 | CCc1cccc(NC(=O)c2cc(Oc3cncc(C)c3)cn3ncnc23)n1 | –
7 | 7.21 | Cc1csc(NC(=O)c2cc(Oc3cncc(Cl)c3)cn3ncnc23)n1 | –
8 | 6.38 | COc1cncc(Oc2cc(C(=O)Nc3cccc(OC)n3)c3ncnn3c2)c1 [drawing 289] | –
9 | < 5.00 | Cc1ncc(Oc2cc(C(=O)Nc3ccc(F)c(C)n3)c3nncn3c2)cn1 | –
10 | 7.28 | Cc1ccc(NC(=O)c2cc(Oc3cncc(F)c3)cn3ncnc23)nc1 | –
11 | 7.60 | O=C(Nc1ccc(F)cn1)c1cc(Oc2cccnc2)cn2ncnc12 | –
12 | 7.40 | COc1cccc(NC(=O)c2cc(Oc3cccnc3)cn3ncnc23)n1 | –
13 | 6.57 | Cc1ccc(NC(=O)c2cc(Oc3cncc(C)c3)cn3ncnc23)nc1 | –
